Measurements reported in patent US20220402903A1, “ISOXAZOLINE COMPOUND WITH OPTICAL ACTIVITY AND USE” (SHENYANG SINOCHEM AGROCHEMICALS R&D CO., LTD., priority 2019, published 2022).

What was measured:
Test in all cases: Greenhouse herbicidal activity, post-emergence stem and leaf spray
Assay type in all cases: in vivo
Zinnia elegans = conditions: for Control effect on Zinnia elegans: post-emergence, dose 4 g a.i./hm^2, visual, 0 = no control effect, 100% = weeds completely killed
Text: (§1) The test method of the herbicidal activity of the compound in the present invention is as follows:
(§2) Quantitative grass weed (Echinochloa crusgalli and Setaria viridis) and broad-leaved weed (Abutilon theophrasti and Zinnia elegans) seeds were sown in paper cups having a diameter of 7 cm and containing nutrient soil, after sowing, the seeds were covered with 1 cm of soil, the soil was pressed and watered, and then the seeds were cultivated in a greenhouse according to a conventional method. The grass weeds grew to 2-3 leaf stages, the broad-leaved weeds grew to 2-4 leaf stages, stem and leaves were sprayed. Before emergence, the soil was sprayed within 24 hours after sowing. According to the design dose of the test, spray treatment was carried out on a track-type crop sprayer (designed and produced by British Engineer Research Ltd.) (spray pressure is 1.95 kg/cm^2, spray volume is 500 L/hm^2 and track speed is 1.48 km/h). The test was repeated for three times. The test material was treated and then placed in an operation hall. The medicinal liquid was naturally dried in the shade, and then was placed in a greenhouse and managed according to the conventional method. The response of the weeds to the test compound was observed and recorded. After treatment, the control effects of the test compound on the weeds were visually inspected regularly.
(§3) The grading standards of the control effects: 0 represents no control effect and 100% represents that the weeds are completely killed or greatly controlled.

Abutilon theophrasti = conditions: for Control effect on Abutilon theophrasti: post-emergence, dose 4 g a.i./hm^2, visual, 0 = no control effect, 100% = weeds completely killed
Text: as §1, §2, §3

Echinochloa crusgalli = conditions: for Control effect on Echinochloa crusgalli: post-emergence, visual, 0 = no control effect, 100% = weeds completely killed
Text: as §1, §2, §3

Setaria viridis = conditions: for Control effect on Setaria viridis: post-emergence, visual, 0 = no control effect, 100% = weeds completely killed
Text: as §1, §2, §3

[1] = post-emergence treatment, dose 4-8 g a.i./hm^2

Row | SMILES | Herbicidal activity on Zinnia elegans (in words) (Zinnia elegans; [1]) | Control effect on Zinnia elegans (Zinnia elegans) [%] | Herbicidal activity on Abutilon theophrasti (in words) (Abutilon theophrasti; [1]) | Control effect on Abutilon theophrasti (Abutilon theophrasti) [%] | Herbicidal activity on Echinochloa crusgalli (in words) (Echinochloa crusgalli; [1]) | Control effect on Echinochloa crusgalli (Echinochloa crusgalli; dose 4 g a.i./hm^2) [%] | Control effect on Echinochloa crusgalli (Echinochloa crusgalli; dose 8 g a.i./hm^2) [%] | Herbicidal activity on Setaria viridi (in words) (Setaria viridis; [1]) | Control effect on Setaria viridis (Setaria viridis; dose 4 g a.i./hm^2) [%] | Control effect on Setaria viridis (Setaria viridis; dose 8 g a.i./hm^2) [%]
1 | CCOC(=O)[C@]1(C)CC(c2cc(-n3c(=O)cc(C(F)(F)F)n(C)c3=O)c(F)cc2Cl)=NO1 [Compound 3] | high herbicidal activity | 100 | high herbicidal activity | 90 | high herbicidal activity | 90 | 98 | high herbicidal activity | 75 | 85
2 | CCOC(=O)C1(C)CC(c2cc(-n3c(=O)cc(C(F)(F)F)n(C)c3=O)c(F)cc2Cl)=NO1 (stereo not shown) [CN105753853 Compound 6, reference compound] |  | 90 |  | 60 |  | 45 | 50 |  | 25 | 55
